This note sets out measurements from patent publication US7723527B2 (Janssen Pharmaceutica NV, priority 2003, dated 2010).

The target in this assay is T1, human histamine H4 receptor (Homo sapiens, UniProt Q9H3N8).
T1 construct: expressed in transfected cells; host or cells: SK-N-MC cells or COS7 cells, transiently transfected; cell membranes used
T1 sequence (Q9H3N8 whole entry): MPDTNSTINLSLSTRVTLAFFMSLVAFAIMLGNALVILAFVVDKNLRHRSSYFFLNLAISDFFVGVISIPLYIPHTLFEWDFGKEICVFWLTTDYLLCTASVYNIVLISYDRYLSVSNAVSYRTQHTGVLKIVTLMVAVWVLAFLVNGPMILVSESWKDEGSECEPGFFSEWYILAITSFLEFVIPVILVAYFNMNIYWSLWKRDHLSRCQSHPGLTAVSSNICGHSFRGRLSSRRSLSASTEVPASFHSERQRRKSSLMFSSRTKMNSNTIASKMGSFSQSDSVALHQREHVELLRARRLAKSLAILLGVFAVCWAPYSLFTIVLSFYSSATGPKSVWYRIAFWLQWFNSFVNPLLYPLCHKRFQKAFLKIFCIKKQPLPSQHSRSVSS
Kind of assay: Binding assay on recombinant human histamine H4 receptor (3H-histamine displacement). Conditions: competition binding with 3H-histamine; membranes of SK-N-MC or COS7 cells expressing human H4 receptor; Cheng-Prusoff, KD 5 nM, ligand 5 nM. The gist of the method:
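Membranes from SK-N-MC or COS7 cells transiently transfected with human H4R, incubated with ^3H-histamine (5-70 nM) at room temperature for 45 min, nonspecific binding with 10,000 nM histamine. Filtration and scintillation counting; compound affinity from displacement of ^3H-ligand across varying concentrations.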
As a reminder, the Ki is a dissociation constant, usually derived from enzyme kinetics or from competition with a known ligand. `Cc1c(Cl)ccc2[nH]c(-c3cc(OCCCCC4CCN(C)CC4)ncc3Br)nc12` [Example 133, 2-{5-Bromo-2-[4-(1-methyl-piperidin-4-yl)-butoxy]-pyridin-4-yl}-5-chloro-4-methyl-1H-benzoimidazole]: the Ki is 12 nM.
The figure for `CN1CCC(CCCCOc2cc(-c3nc4cc(C(C)(C)C)ccc4[nH]3)c(Br)cn2)CC1` [Example 134, 2-{5-Bromo-2-[4-(1-methyl-piperidin-4-yl)-butoxy]-pyridin-4-yl}-5-tert-butyl-1H-benzoimidazole] is 117 nM; for `CN1CCC(CCCCOc2cc(-c3nc4cc(C(C)(C)C)ccc4[nH]3)ccn2)CC1` [Example 135, 5-tert-Butyl-2-{2-[4-(1-methyl-piperidin-4-yl)-butoxy]-pyridin-4-yl}-1H-benzoimidazole] it is 47 nM; for `Cc1c(F)ccc2[nH]c(-c3cc(OCCCCC4CCN(C)CC4)ncc3Cl)nc12` [Example 136, 2-{5-Chloro-2-[4-(1-methyl-piperidin-4-yl)-butoxy]-pyridin-4-yl}-5-fluoro-4-methyl-1H-benzoimidazole] it is 1 nM.
As for `Cc1ccc2[nH]c(-c3cc(OCCCCC4CCN(C)CC4)ncc3Cl)nc2c1C` [Example 137, 2-{5-Chloro-2-[4-(1-methyl-piperidin-4-yl)-butoxy]-pyridin-4-yl}-4,5-dimethyl-1H-benzoimidazole], the figure is 3 nM.
As for `Cc1cc(C)c2nc(-c3ccnc(OCCCCN4CCN(C)CC4)c3)[nH]c2c1` [Example 138, 4,6-Dimethyl-2-{2-[4-(4-methyl-piperazin-1-yl)-butoxy]-pyridin-4-yl}-1H-benzoimidazole], the figure is 46 nM.
Consider `Cc1cccc2[nH]c(-c3ccnc(OCCCCN4CCN(C)CC4)c3)nc12` [Example 139, 4-Methyl-2-{2-[4-(4-methyl-piperazin-1-yl)-butoxy]-pyridin-4-yl}-1H-benzoimidazole], for which the Ki turned out to be 69 nM.
The figure for `Cc1ccc2[nH]c(-c3ccnc(OCCCCN4CCN(C)CC4)c3)nc2c1C` [Example 140, 4,5-Dimethyl-2-{2-[4-(4-methyl-piperazin-1-yl)-butoxy]-pyridin-4-yl}-1H-benzoimidazole] is 144 nM; for `Cc1c(F)ccc2[nH]c(-c3ccnc(OCCCCN4CCN(C)CC4)c3)nc12` [Example 141, 5-Fluoro-4-methyl-2-{2-[4-(4-methyl-piperazin-1-yl)-butoxy]-pyridin-4-yl}-1H-benzoimidazole] it is 60 nM.
In the case of `Cc1cc(Cl)cc2[nH]c(-c3ccnc(OCCCCN4CCN(C)CC4)c3)nc12` [Example 142, 6-Chloro-4-methyl-2-{2-[4-(4-methyl-piperazin-1-yl)-butoxy]-pyridin-4-yl}-1H-benzoimidazole], the Ki turned out to be 73 nM.
The figure for `Cc1c(F)ccc2[nH]c(-c3ccnc(OCCCCN4CCCN(C)CC4)c3)nc12` [Example 143, 5-Fluoro-4-methyl-2-{2-[4-(4-methyl-[1,4]diazepan-1-yl)-butoxy]-pyridin-4-yl}-1H-benzoimidazole] is 6 nM; for `Cc1ccc2[nH]c(-c3ccnc(OCCCCN4CCCN(C)CC4)c3)nc2c1C` [Example 144, 4,5-Dimethyl-2-{2-[4-(4-methyl-[1,4]diazepan-1-yl)-butoxy]-pyridin-4-yl}-1H-benzoimidazole] it is 8 nM; for `Cc1cc(C)c2nc(-c3ccnc(OCCCCC4CCN(C)CC4)c3)[nH]c2c1` [Example 145, 4,6-Dimethyl-2-{2-[4-(1-methyl-piperidin-4-yl)-butoxy]-pyridin-4-yl}-1H-benzoimidazole] it is 3 nM.
The figure for `Cc1cccc2[nH]c(-c3ccnc(OCCCCC4CCN(C)CC4)c3)nc12` [Example 146, 4-Methyl-2-{2-[4-(1-methyl-piperidin-4-yl)-butoxy]-pyridin-4-yl}-1H-benzoimidazole] is 5 nM.
The figure for `Cc1c(F)ccc2[nH]c(-c3ccnc(OCCCCC4CCN(C)CC4)c3)nc12` [Example 147, 5-Fluoro-4-methyl-2-{2-[4-(1-methyl-piperidin-4-yl)-butoxy]-pyridin-4-yl}-1H-benzoimidazole] is 8 nM; for `CN1CCC(CCCCOc2cc(-c3nc4c(Cl)cccc4[nH]3)ccn2)CC1` [Example 148, 4-Chloro-2-{2-[4-(1-methyl-piperidin-4-yl)-butoxy]-pyridin-4-yl}-1H-benzoimidazole] it is 17 nM.
For the molecule `Cc1ccc2[nH]c(-c3ccnc(OCCCCC4CCN(C)CC4)c3)nc2c1C` [Example 149, 4,5-Dimethyl-2-{2-[4-(1-methyl-piperidin-4-yl)-butoxy]-pyridin-4-yl}-1H-benzoimidazole], the Ki came to 4 nM.
As for `Cc1cc(Cl)cc2[nH]c(-c3ccnc(OCCCCC4CCN(C)CC4)c3)nc12` [Example 150, 6-Chloro-4-methyl-2-{2-[4-(1-methyl-piperidin-4-yl)-butoxy]-pyridin-4-yl}-1H-benzoimidazole], the figure is 19 nM; as for `Cc1c(Cl)ccc2[nH]c(-c3ccnc(OCCCCC4CCN(C)CC4)c3)nc12` [Example 151, 5-Chloro-4-methyl-2-{2-[4-(1-methyl-piperidin-4-yl)-butoxy]-pyridin-4-yl}-1H-benzoimidazole], 21 nM.
As for `CC(C)(C)c1ccc2[nH]c(-c3ccnc(OCCCCC4CCNCC4)c3)nc2c1` [Example 152, 5-tert-Butyl-2-[2-(4-piperidin-4-yl-butoxy)-pyridin-4-yl]-1H-benzoimidazole], the figure is 117 nM.
The figure for `Cc1cc(C)c2nc(-c3ccnc(OCCCCC4CCNCC4)c3)[nH]c2c1` [Example 153, 4,6-Dimethyl-2-[2-(4-piperidin-4-yl-butoxy)-pyridin-4-yl]-1H-benzoimidazole] is 179 nM; for `CCN1CCC(CCCCOc2cc(-c3nc4c(C)c(C)ccc4[nH]3)ccn2)CC1` [Example 154, 2-{2-[4-(1-Ethyl-piperidin-4-yl)-butoxy]-pyridin-4-yl}-4,5-dimethyl-1H-benzoimidazole] it is 111 nM.
As for `Cc1cc(C)c2nc(-c3ccnc(OCCCCC4CCN(C)CC4)c3C)[nH]c2c1` [Example 155, 4,6-Dimethyl-2-{3-methyl-2-[4-(1-methyl-piperidin-4-yl)-butoxy]-pyridin-4-yl}-1H-benzoimidazole], the Ki is 13 nM.
Regarding `Cc1c(-c2nc3c(C)cccc3[nH]2)ccnc1OCCCCC1CCN(C)CC1` [Example 156, 4-Methyl-2-{3-methyl-2-[4-(1-methyl-piperidin-4-yl)-butoxy]-pyridin-4-yl}-1H-benzoimidazole], the Ki is 20 nM.
The figure for `Cc1c(-c2nc3c(C)cc(Cl)cc3[nH]2)ccnc1OCCCCC1CCN(C)CC1` [Example 157, 6-Chloro-4-methyl-2-{3-methyl-2-[4-(1-methyl-piperidin-4-yl)-butoxy]-pyridin-4-yl}-1H-benzoimidazole] is 28 nM; for `Cc1cccc2[nH]c(-c3ccnc(OCCCCC4CCN(C)CC4)c3Cl)nc12` [Example 158, 2-{3-Chloro-2-[4-(1-methyl-piperidin-4-yl)-butoxy]-pyridin-4-yl}-4-methyl-1H-benzoimidazole] it is 21 nM.
As to `Cc1ccc2[nH]c(-c3ccnc(OCCCCC4CCN(C)CC4)c3Cl)nc2c1C` [Example 159, 2-{3-Chloro-2-[4-(1-methyl-piperidin-4-yl)-butoxy]-pyridin-4-yl}-4,5-dimethyl-1H-benzoimidazole], the Ki was determined as 19 nM.
The figure for `CN1CCC(CCCCOc2nccc(-c3nc4c(Cl)cccc4[nH]3)c2Cl)CC1` [Example 160, 4-Chloro-2-{3-chloro-2-[4-(1-methyl-piperidin-4-yl)-butoxy]-pyridin-4-yl}-1H-benzoimidazole] is 53 nM.
As for `Cc1c(F)ccc2[nH]c(-c3ccnc(OCCCCC4CCN(C)CC4)c3Cl)nc12` [Example 161, 2-{3-Chloro-2-[4-(1-methyl-piperidin-4-yl)-butoxy]-pyridin-4-yl}-5-fluoro-4-methyl-1H-benzoimidazole], the figure is 20 nM; as for `Cc1cc(C)c2nc(-c3ccnc(OCCCCC4CCN(C)CC4)c3Cl)[nH]c2c1` [Example 162, 2-{3-Chloro-2-[4-(1-methyl-piperidin-4-yl)-butoxy]-pyridin-4-yl}-4,6-dimethyl-1H-benzoimidazole], 15 nM.
Regarding `Cc1cc(Cl)cc2[nH]c(-c3ccnc(OCCCCC4CCN(C)CC4)c3Cl)nc12` [Example 163, 6-Chloro-2-{3-chloro-2-[4-(1-methyl-piperidin-4-yl)-butoxy]-pyridin-4-yl}-4-methyl-1H-benzoimidazole], the Ki turned out to be 12 nM.
The figure for `Cc1c(Cl)ccc2[nH]c(-c3ccnc(OCCCCC4CCN(C)CC4)c3Cl)nc12` [Example 164, 5-Chloro-2-{3-chloro-2-[4-(1-methyl-piperidin-4-yl)-butoxy]-pyridin-4-yl}-4-methyl-1H-benzoimidazole] is 7 nM; for `Cc1cnc(OCCCCC2CCN(C)CC2)cc1-c1nc2c(C)c(F)ccc2[nH]1` [Example 165, 5-Fluoro-4-methyl-2-{5-methyl-2-[4-(1-methyl-piperidin-4-yl)-butoxy]-pyridin-4-yl}-1H-benzoimidazole] it is 3 nM.
As for `Cc1cnc(OCCCCC2CCN(C)CC2)cc1-c1nc2cc(Cl)c(F)cc2[nH]1` [Example 166, 5-Chloro-6-fluoro-2-{5-methyl-2-[4-(1-methyl-piperidin-4-yl)-butoxy]-pyridin-4-yl}-1H-benzoimidazole], the figure is 6 nM; as for `Cc1cnc(OCCCCC2CCN(C)CC2)cc1-c1nc2cc(C(C)(C)C)ccc2[nH]1` [Example 167, 5-tert-Butyl-2-{5-methyl-2-[4-(1-methyl-piperidin-4-yl)-butoxy]-pyridin-4-yl}-1H-benzoimidazole], 4 nM.
As for `Cc1cnc(OCCCCC2CCN(C)CC2)cc1-c1nc2c(C)c(C)ccc2[nH]1` [Example 168, 4,5-Dimethyl-2-{5-methyl-2-[4-(1-methyl-piperidin-4-yl)-butoxy]-pyridin-4-yl}-1H-benzoimidazole], the figure is 6 nM.
